Results on two molecules are retold here after patent publication US11746087B1, “C4-carboxylic acid-substituted tryptamine derivatives and methods of using” (priority 2022, dated 2023).

One series deals with T1, HTR3A (5-HT3A) (Homo sapiens, UniProt P46098).
T1 sequence (P46098 24-478): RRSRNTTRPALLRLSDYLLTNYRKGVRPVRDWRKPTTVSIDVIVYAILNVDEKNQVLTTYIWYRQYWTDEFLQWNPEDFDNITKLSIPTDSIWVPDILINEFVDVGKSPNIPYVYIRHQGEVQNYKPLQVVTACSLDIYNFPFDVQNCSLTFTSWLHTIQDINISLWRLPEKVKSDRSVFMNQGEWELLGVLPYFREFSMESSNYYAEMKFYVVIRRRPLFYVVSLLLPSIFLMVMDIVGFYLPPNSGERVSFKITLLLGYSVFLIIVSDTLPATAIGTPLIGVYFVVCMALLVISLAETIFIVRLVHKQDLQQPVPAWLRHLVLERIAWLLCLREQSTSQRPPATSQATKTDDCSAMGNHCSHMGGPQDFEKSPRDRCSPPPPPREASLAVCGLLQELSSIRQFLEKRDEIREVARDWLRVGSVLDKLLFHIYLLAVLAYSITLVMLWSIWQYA
Nature of the series: Ion channel assay (FLIPR membrane potential), opener. It counts as cell-based.

Series [1] is described as follows: Mouse PK study (IV and PO), plasma parent compound and psilocin by LC-MS/MS. It is filed as in vivo. The source says:
Briefly, the procedure was as follows. […] 19, 2022.

The target of another series is NMDAR (Homo sapiens, UniProt Q05586+Q13224). Description: Ion channel assay (FLIPR membrane potential), blocker. It is filed as cell-based.
For another series, the target named is HTR2B (5-HT2B) (Homo sapiens, UniProt P41595). Nature of the series: Calcium secondary messenger assay, agonist mode. It is filed as cell-based.
A further series concerns the target HTR1B (5-HTR1B) (Homo sapiens, UniProt P28222). Nature of the series: EFC-based cAMP secondary messenger assay, antagonist mode. It counts as cell-based.
A further series deals with T2, 5-HT2A receptor (Mus musculus, UniProt P35363).
T2 construct: 8-week old C57BL/6-Elite male and female mice were obtained from Charles River; tissue Charles River; host or cells: living C57BL/6-Elite mice (neuronal receptor, in vivo)
Nature of the series: Drug-induced Head Twitch Response (HTR). It counts as in vivo. The note with it: C57BL/6 mice; 1 mg/kg i.p.; 15-to-30-minute window after administration.

A further series concerns the target T3, ADRA1A (Homo sapiens, UniProt P35348).
T3 sequence (P35348 1-466): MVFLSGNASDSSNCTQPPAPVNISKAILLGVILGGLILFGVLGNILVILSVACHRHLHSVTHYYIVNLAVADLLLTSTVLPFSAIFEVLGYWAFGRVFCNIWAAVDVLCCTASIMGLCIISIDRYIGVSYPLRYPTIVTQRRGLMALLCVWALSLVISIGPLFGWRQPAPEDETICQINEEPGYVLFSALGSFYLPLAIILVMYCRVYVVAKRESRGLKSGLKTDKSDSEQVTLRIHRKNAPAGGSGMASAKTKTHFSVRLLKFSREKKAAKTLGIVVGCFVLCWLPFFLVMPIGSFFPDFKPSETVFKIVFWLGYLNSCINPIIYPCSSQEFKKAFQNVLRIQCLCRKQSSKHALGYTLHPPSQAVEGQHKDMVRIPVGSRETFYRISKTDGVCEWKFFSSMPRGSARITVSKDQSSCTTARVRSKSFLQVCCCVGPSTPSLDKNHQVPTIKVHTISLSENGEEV
Nature of the series: Calcium secondary messenger assay, antagonist mode. It counts as cell-based.

Another series concerns the target OPRD1 (Homo sapiens, UniProt P41143). Nature of the series: EFC-based cAMP secondary messenger assay, antagonist mode. It counts as cell-based.
The target in the next series is T4, CHRM1 (Homo sapiens, UniProt P11229).
T4 sequence (P11229 1-460): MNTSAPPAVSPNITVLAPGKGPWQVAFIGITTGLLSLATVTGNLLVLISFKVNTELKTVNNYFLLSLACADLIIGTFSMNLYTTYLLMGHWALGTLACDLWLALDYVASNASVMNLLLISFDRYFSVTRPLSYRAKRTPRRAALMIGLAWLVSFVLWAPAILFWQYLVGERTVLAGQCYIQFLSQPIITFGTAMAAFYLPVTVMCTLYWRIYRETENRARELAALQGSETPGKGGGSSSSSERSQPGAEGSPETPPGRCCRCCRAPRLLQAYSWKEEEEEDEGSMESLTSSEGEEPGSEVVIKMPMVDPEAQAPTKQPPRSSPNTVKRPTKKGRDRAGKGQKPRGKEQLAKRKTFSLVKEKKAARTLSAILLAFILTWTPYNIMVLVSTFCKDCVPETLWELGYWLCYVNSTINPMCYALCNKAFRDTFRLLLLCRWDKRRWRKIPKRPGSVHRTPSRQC
Nature of the series: cell-based.

A further series concerns the target DAT (Homo sapiens, UniProt Q01959). Nature of the series: Neurotransmitter transporter uptake assay, blocker. It is filed as cell-based.

Values joined by “and” are separate entries in the source; they are usually repeats but may differ in a detail not shown here. Equal entries are not always repeated.

Chain of HTR1B (5-HTR1B) (P28222 whole entry): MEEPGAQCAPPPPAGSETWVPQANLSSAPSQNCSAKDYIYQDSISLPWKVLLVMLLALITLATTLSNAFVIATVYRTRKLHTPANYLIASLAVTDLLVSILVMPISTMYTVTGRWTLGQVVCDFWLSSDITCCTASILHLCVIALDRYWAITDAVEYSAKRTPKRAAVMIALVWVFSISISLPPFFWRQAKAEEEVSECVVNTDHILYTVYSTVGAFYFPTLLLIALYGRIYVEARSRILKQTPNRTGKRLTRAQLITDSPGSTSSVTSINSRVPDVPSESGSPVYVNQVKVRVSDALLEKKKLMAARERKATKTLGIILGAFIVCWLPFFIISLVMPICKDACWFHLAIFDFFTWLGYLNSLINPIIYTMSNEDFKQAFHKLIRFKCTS
Chain of NMDAR (Q13224 27-1484, other chains not shown): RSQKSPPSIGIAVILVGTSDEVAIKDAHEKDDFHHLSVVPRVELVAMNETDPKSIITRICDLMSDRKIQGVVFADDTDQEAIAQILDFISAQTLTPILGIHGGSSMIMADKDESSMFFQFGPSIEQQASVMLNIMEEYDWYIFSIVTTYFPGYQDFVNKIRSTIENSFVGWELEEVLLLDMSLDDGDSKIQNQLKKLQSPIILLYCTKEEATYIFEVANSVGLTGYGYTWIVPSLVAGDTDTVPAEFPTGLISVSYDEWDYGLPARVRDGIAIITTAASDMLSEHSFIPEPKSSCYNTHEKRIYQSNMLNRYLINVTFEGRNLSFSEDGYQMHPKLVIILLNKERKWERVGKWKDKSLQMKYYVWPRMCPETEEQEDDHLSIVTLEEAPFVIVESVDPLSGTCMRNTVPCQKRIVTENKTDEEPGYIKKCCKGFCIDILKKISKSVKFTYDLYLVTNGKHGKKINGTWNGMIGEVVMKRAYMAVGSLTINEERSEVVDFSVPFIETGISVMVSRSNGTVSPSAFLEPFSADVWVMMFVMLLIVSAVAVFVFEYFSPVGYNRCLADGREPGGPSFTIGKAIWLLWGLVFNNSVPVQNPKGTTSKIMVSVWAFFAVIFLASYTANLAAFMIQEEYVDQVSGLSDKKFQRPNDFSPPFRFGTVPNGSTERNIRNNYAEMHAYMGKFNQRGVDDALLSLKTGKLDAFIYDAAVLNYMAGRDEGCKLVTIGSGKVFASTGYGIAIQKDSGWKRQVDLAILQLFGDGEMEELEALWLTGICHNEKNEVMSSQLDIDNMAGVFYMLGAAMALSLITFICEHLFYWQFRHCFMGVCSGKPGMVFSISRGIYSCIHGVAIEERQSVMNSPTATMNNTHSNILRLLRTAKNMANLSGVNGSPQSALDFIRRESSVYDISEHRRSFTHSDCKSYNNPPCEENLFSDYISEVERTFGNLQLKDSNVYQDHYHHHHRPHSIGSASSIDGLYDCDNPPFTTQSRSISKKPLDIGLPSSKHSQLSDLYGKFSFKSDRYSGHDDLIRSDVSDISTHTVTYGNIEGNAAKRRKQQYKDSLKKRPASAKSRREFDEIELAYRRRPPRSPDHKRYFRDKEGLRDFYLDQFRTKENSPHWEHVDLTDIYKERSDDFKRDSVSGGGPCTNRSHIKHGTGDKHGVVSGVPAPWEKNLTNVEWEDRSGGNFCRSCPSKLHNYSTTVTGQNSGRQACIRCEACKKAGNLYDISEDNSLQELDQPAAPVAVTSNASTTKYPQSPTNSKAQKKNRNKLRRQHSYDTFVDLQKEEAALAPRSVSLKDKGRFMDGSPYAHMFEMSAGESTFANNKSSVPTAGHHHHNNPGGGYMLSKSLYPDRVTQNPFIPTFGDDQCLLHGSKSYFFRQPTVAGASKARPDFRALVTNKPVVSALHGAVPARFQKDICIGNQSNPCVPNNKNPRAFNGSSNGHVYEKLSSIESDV
Chain of HTR2B (5-HT2B) (P41595 whole entry): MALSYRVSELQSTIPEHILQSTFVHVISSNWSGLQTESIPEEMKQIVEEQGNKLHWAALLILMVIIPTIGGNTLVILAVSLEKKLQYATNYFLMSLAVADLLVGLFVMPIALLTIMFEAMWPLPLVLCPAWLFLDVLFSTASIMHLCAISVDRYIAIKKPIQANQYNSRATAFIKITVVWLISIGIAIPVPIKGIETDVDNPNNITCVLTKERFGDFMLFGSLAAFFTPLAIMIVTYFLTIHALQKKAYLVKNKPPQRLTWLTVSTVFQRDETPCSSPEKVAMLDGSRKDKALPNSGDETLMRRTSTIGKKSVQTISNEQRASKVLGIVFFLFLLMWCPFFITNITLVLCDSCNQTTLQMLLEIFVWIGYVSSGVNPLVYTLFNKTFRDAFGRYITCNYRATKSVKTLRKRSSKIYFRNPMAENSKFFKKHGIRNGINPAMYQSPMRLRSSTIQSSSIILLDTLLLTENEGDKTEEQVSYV
Chain of OPRD1 (P41143 whole entry): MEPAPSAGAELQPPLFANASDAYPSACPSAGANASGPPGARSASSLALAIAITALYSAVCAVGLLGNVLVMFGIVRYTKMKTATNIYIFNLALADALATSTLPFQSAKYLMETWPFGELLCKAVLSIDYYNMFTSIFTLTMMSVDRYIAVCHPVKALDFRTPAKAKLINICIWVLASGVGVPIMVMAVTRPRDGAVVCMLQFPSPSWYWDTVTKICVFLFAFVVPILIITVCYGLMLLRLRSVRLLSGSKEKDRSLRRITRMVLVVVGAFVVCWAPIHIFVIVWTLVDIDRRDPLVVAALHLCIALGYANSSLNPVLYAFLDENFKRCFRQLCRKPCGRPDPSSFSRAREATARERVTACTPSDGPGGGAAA
Chain of DAT (Q01959 whole entry): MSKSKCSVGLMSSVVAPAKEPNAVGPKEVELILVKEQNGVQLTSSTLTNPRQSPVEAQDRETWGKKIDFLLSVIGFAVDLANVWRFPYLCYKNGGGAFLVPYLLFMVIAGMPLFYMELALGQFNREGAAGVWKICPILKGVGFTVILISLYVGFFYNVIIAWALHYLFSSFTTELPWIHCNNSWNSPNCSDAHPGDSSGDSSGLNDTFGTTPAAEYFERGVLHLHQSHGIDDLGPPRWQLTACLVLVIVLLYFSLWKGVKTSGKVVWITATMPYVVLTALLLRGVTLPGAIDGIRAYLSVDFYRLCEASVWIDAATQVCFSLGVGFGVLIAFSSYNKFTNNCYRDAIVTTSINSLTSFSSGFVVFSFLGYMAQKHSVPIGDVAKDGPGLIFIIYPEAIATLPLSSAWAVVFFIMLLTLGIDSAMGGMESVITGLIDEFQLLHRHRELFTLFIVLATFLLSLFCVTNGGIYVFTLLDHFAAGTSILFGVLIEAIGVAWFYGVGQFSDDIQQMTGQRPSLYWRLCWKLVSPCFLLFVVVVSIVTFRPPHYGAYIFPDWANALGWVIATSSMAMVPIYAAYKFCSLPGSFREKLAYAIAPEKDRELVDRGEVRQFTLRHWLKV
T2 sequence (P35363 whole entry): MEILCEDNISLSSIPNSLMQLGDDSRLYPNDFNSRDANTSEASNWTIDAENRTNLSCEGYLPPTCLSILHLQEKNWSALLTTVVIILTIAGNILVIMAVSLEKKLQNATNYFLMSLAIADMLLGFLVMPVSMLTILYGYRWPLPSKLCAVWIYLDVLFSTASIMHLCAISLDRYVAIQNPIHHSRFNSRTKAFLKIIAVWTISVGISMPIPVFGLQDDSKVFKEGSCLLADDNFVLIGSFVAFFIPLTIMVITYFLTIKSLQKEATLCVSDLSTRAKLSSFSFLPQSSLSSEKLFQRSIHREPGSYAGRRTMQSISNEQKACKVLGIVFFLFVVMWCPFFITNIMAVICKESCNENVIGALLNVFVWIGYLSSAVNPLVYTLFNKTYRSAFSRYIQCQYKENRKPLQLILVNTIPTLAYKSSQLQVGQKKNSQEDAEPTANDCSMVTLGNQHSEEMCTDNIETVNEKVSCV

With `CN(C)CCc1c[nH]c2cccc(OC(=O)CC3CC3)c12` [C(IV)], the concentration for a half-maximal effect (EC50) at HTR3A (5-HT3A) and on HTR2B (5-HT2B) was above 100 µM each time. The “Plasma concentration of psilocin” value in [1] (0.275 mg/kg oral C(IV), 4 h, individual animals, BLQ = below 0.2 ng/mL) was “BLQ”; in series [1] (0.275 mg/kg oral C(IV), 6 h, individual animals, BLQ = below 0.2 ng/mL) it was “BLQ”; in series [1] (0.275 mg/kg oral C(IV), 8 h, individual animals, BLQ = below 0.2 ng/mL) it was “BLQ”; in series [1] (0.275 mg/kg oral C(IV), 24 h, individual animals), “No Peak”; in series [1] (0.293 mg/kg i.v. C(IV), 8 h, individual animals, BLQ = below 0.2 ng/mL), “No Peak and BLQ (2×)”; in series [1] (0.789 mg/kg oral C(IV), 8 h, individual animals, BLQ = below 0.2 ng/mL), “BLQ”. In addition, the “Plasma concentration of psilocin” value in series [1] (0.789 mg/kg oral C(IV), 24 h, individual animals) is “No Peak”; in [1] (2.52 mg/kg oral C(IV), 24 h, individual animals, BLQ = below 0.2 ng/mL), “BLQ and No Peak (2×)”. Also, the “detectability of parent compound in plasma, any dose” value in [1] (mouse, i.v. and oral, any animals at any dose) is on record as “not detectable in any animals at any dose”. Further, the IC50 is above 100 µM against NMDAR; above 100 µM on HTR1B (5-HTR1B); 26.4 µM on ADRA1A; above 100 µM against OPRD1; above 100 µM against CHRM1 (CHRM1, GPCR, ANT (antagonist)); above 100 µM against DAT. In addition, the “Head Twitch Response (HTR) incidence relative to vehicle” value at 5-HT2A receptor is recorded as “Elevated incidences of HTR”.
As for `COc1ccc(C(=O)Oc2cccc3[nH]cc(CCN(C)C)c23)cc1` [C(V)], the concentration giving a half-maximal response (EC50) on HTR3A (5-HT3A) and on HTR2B (5-HT2B) was above 100 µM throughout. In addition, the concentration at 0.25 h in series [1] (male, C57Bl/6, mouse, plasma, iv, 1 mg/kg, mouse, C(V) 1 mg/kg i.v., 0.25 h, C(V) not stable in plasma, not considered accurate, read-out: Plasma concentration of C(V)) amounted to 0.834 ng/mL. In addition, in series [1] (male, C57Bl/6, mouse, plasma, iv, 1 mg/kg, mouse, C(V) 1 mg/kg i.v., estimates not considered accurate (plasma instability), read-out: tmax of C(V)), the Tmax was 5 min. For the same molecule, the stability in plasma entry in series [1] (mouse plasma, PK bioanalysis) was “unstable in plasma”. The “detectability of parent compound in plasma, i.v. dosing” value in series [1] (mouse, 1 mg/kg i.v.) is “only detectable in iv. administered animals”. The “Plasma concentration of C(V)” value in series [1] (mouse, C(V) 1 mg/kg i.v., 0.5 h, 1 mg/kg) was “BLQ and No Peak”; in [1] (mouse, C(V) 1 mg/kg i.v., 1 h), “No Peak”; in [1] (mouse, C(V) 1 mg/kg i.v., 2 h), “No Peak”; in series [1] (mouse, C(V) 1 mg/kg i.v., 4 h), “No Peak”; in series [1] (mouse, C(V) 1 mg/kg i.v., 6 h), “No Peak”; in [1] (mouse, C(V) 1 mg/kg i.v., 8 h), “No Peak”. For the same molecule, the “tmax of C(V)” value in [1] (mouse, C(V) 1 mg/kg i.v., estimates not considered accurate (plasma instability), 1 mg/kg) was 0.0833 h (2×) and 0.0833 ± 0.00 h. For the same molecule, the “Plasma concentration of psilocin” value was “No Peak and BLQ” in [1] (mouse, C(V) 1 mg/kg oral, 24 h, 1 mg/kg); “No Peak and BLQ” in [1] (mouse, C(V) 3 mg/kg oral, 24 h, 3 mg/kg); “BLQ and No Peak” in series [1] (mouse, C(V) 10 mg/kg oral, 24 h, 10 mg/kg). Besides, in [1] (mouse, oral, any dose (1, 3, 10 mg/kg)), the “detectability of parent compound in plasma, oral dosing” value is recorded as “not detectable”. The IC50 was above 100 µM at NMDAR; above 100 µM on HTR1B (5-HTR1B); 14.9 µM on ADRA1A; above 100 µM against OPRD1; above 100 µM at CHRM1 (CHRM1, GPCR, antagonist (ANT)); above 100 µM against DAT. The “Head Twitch Response (HTR) incidence relative to vehicle” value on 5-HT2A receptor is “Elevated incidences of HTR”.

Usually EC50 stands for the concentration that produces a half-maximal response. What is called IC50 is the concentration that inhibits the measured activity by half. By Tmax is commonly meant the time from dosing to the highest level.
